Measured values reported in US4147767A, “Albumin medicament carrier system” (priority 1977, dated 1979).

System: L-676 mouse embryo fibroblasts
Assay: Mouse L-Cell growth inhibition test
Assay type: cell-based
Details: 72 hours
Procedure: L-676 mouse embryo fibroblasts were grown and maintained in liquid shake cultures of Swims-67G medium fortified by the addition of 5% fetal calf serum and supplemented with 1%, 200 millimolar glutamine.
Free drugs (without a carrier) used as controls were solubilized in either sterile distilled water or acetone and then added to the growth medium.
Drug containing HSA spherules were resuspended in growth medium. A sonifying water bath was employed to aid in suspension.
A 10% (v/v) inoculum of L-cells was employed in a final volume of 20 ml of growth medium containing suspended drug-containing microspheres or free control drug. […] All tests were performed in duplicate.

Structure (SMILES)	% L-Cell Inhibition (1 microgram drug/ml) [%]	% L-Cell Inhibition (10 micrograms drug/ml) [%]	% L-Cell Inhibition (50 micrograms drug/ml) [%]	% L-Cell Inhibition (100 micrograms drug/ml) [%]	% L-Cell Inhibition (25.0 μg drug/ml) [%]
CC(=O)OCC(=O)[C@@]1(O)CC[C@H]2[C@@H]3CCC4=CC(=O)CC[C@]4(C)[C@H]3[C@@H](O)C[C@@]21C [Hydrocortisone Acetate]	0	0	73	88	–
COc1cc2c(c(OC)c1OC)-c1ccc(OC)c(=O)cc1[C@@H](NC(C)=O)CC2 [Colchicine]	91	99	–	–	–
Nc1nc2nc[nH]c2c(=S)[nH]1 [6-Thioguanine]	65	88	92	–	–
CS(=O)(=O)OCCCCOS(C)(=O)=O [Busulfan]	–	–	–	–	69
Sc1ncnc2nc[nH]c12 [6-Mercaptopurine]	–	–	94	–	–
O=c1[nH]cc(F)c(=O)[nH]1 [Pure 5-fluorouracil, 5-fluorouracil]	67	88	93	93	–
O=C(O)CCCc1ccc(N(CCCl)CCCl)cc1 [Chlorambucil]	0	68	97	–	–
NC(=O)NO [Hydroxyurea]	0	22	–	–	–
